pKi: −log10 of the molar value.
Molecular target: T1, histamine 3 receptor (H3R) (Homo sapiens, UniProt Q9Y5N1)
T1 construct: expressed in transfected cells; host or cells: CHO cells (HR3-CHO cell line), membranes
Experiment: Binding assay with 3H-(R)α-methylhistamine (competition binding, membranes of the human HR3-CHO cell line)
Conditions: competition against 3H(R)α-Methylhistamine (1 nM), Ki calculated from IC50 by Cheng-Prusoff
Procedure: Binding assay with ^3H—(R)α-methylhistamine
Saturation binding experiments were performed using HR3-CHO membranes prepared as described in Takahashi, K, Tokita, S., Kotani, H. (2003) J. Pharmacol. Exp. Therapeutics 307, 213-218.
An appropriate amount of membrane (60 to 80 μg protein/well) was incubated with increasing concentrations of ^3H(R)α-Methylhistamine di-hydrochloride (0.10 to 10 nM). Non specific binding was determined using a 200 fold excess of cold (R)α-Methylhistamine dihydrobromide (500 nM final concentration). The incubation was carried out at room temperature (in deep-well plates shaking for three hours). The final volume in each well was 250 μl. The incubation was followed by rapid filtration on GF/B filters (pre-soaked with 100 μl of 0.5% PEI in Tris 50 mM shaking at 200 rpm for two hours). The filtration was made using a cell-harvester and the filter plates were then washed five times with ice cold washing buffer containing 0.5 M NaCl. After harvesting, the plates were dried at 55° C. for 60 min, then we added scintillation fluid (Microscint 40, 40 microl in each well) and the amount of radioactivity on the filter was determined in Packard top-counter after shaking the plates for two hours at 200 rpm at room temperature.
Binding Buffer: 50 mM Tris-HCl pH 7.4 and 5 mM MgCl2×6H2O pH 7.4. Washing Buffer: 50 mM Tris-HCl pH 7.4 and 5 mM MgCl2×6H2O and 0.5 M NaCl pH 7.4.
Indirect measurement of affinity of H3R inverse agonists: twelve increasing concentrations (ranging from 10 μM to 0.3 nM) of the selected compounds were always tested in competition binding experiments using membrane of the human HR3-CHO cell line. An appropriate amount of protein, e.g. approximately 500 cpm binding of RAMH at Kd, were incubated for 1 hour at room temperature in 250 μl final volume in 96-well plates in presence of ^3H(R)α-Methylhistamine (1 nM final concentration=Kd). […]
All compounds were tested at a single concentration in duplicates. […] Ki's were calculated from IC50 based on Cheng-Prusoff equation (Cheng, Y, Prusoff, W H (1973) Biochem Pharmacol 22, 3099-3108).

T1 sequence (Q9Y5N1 whole entry): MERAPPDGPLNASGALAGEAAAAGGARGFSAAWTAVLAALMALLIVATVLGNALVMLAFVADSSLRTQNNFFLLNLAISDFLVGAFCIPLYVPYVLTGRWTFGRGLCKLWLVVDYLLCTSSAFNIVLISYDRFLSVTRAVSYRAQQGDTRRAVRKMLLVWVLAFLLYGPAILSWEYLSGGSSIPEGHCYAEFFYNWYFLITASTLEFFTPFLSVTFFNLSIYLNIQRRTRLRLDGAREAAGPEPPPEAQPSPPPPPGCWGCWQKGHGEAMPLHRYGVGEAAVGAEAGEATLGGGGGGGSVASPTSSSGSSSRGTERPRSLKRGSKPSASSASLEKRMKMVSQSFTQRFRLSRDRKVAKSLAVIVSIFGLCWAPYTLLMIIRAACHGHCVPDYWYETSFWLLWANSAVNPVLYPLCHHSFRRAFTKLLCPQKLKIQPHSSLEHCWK

SMILES | pKi
C[C@@H]1CCCN1CCCOc1ccc2c(c1)cc1n2CCNC1=O [Example 5, 8-[3-((R)-2-Methyl-pyrrolidin-1-yl)-propoxy]-3,4-dihydro-2H-pyrazino[1,2-a]indol-1-one] | 8.19
CC(C)N1CCC(Oc2ccc3c(c2)cc2n3CCCN(CC3CC3)C2=O)CC1 [Example 78, 2-Cyclopropylmethyl-9-(1-isopropyl-piperidin-4-yloxy)-2,3,4,5-tetrahydro-[1,4]diazepino[1,2-a]indol-1-one] | 7.77
C[C@H]1CCCN1CCCOc1cnc2c(c1)cc1n2CCN(CC(F)(F)F)C1=O [Example 92, 7-[3-((S)-2-Methyl-pyrrolidin-1-yl)-propoxy]-2-(2,2,2-trifluoro-ethyl)-3,4-dihydro-2H-2,4a,5-triaza-fluoren-1-one] | 7.54

From patent US7786109B2, “Tricyclic amide derivatives as modulators of H3 receptors” (Hoffmann-La Roche Inc., priority 2005, dated 2010)
